# PMC9022420 (Scientific Reports, 2022)
# What was measured:
# [1] = tested on: 17Cl-1 cells; assay: 24 h MTS cytotoxicity assay, 17Cl-1; type: cell-based, murine; conditions: Mus musculus, 24 h incubation, dark
# Description: (§1) The MTS tetrazolium compound is reduced by cells into a coloured formazan product which is soluble in cell culture media. It can be detected colorimetrically between 450 and 540 nm with the measured absorbance directly proportional to the amount of metabolically active cells in culture. Cells were seeded into clear 96-well plates containing 10,000 cells/well in 100 µL complete growth medium and cultured for 24 h at 37 °C and 5% CO2. […] After further 24 h incubation at 37 °C and 5% CO2, 20 µL of CelTiter 96® AQueous One Solution (Promega) was added into each well and incubated at 37 °C, 5% CO2 for 1–4 h, according to the manufacturer’s instruction. The absorbance of each well was measured at 490 nm using a plate reader (Spark, Tecan). Control measurements included negative control of cells with DMEM, cells with DMEM containing 0.1% DMSO, cell-free culture media (blank) and cell-free sample dilutions in culture media to evaluate potential sample interferences with MTS assay. All experiments were conducted in biological triplicates. The percentage cell viability was calculated according to Eq. (1):1 Cell viability(%)=100×Absorbanceoftreatedcells-Absorbanceofblank/Absorbanceofcontrol-Absorbanceofblank
# [2] = tested on: E. coli BL21(DE3); assay: Photodynamic inactivation of E. coli (CFU counting); type: cell-based
# Description: After an overnight aerobic culture in LB broth at 37 °C with shaking at 225 rpm, the resulting E. coli were centrifuged at 2,500 rpm for 10 min. The pellet was resuspended in PBS (Sigma, 1x, pH 7.4) to an OD600 value of 0.6 (~ 1 × 10^8 bacteria per ml). […] Aliquots of negative controls (0.5% DMSO in PBS; PBS only) and 100 μM flavin-bacteria samples were covered in foil to remain in dark, while all samples were plated onto a 96-well plate and exposed to white LED irradiation (1 × 10^5 lx) for 15 min. After 15 min of irradiation or darkness, each sample was serially diluted to its respective, appropriate dilution and plated onto an LB agar plate with 50 μg/mL kanamycin. Plates were incubated overnight at 37 °C in the dark. Survival of bacteria was determined by counting colony forming units (CFUs) the next day.
# For time point data, aliquots of 100 μM flavin-bacteria solutions were taken at 5-min increments of irradiation (0, 5, 10, and 15 min) and evaluated similarly as above. Time point experiment with one-minute increments, between 0 and 5 min, were conducted for 100 μM F4-bacteria samples.
# [3] = tested on: pDNA (pUC18); assay: pDNA photocleavage, agarose gel electrophoresis; type: biochemical; conditions: 10 µM flavin, 15 min white LED, PBS 0.1% DMSO
# Description: (§2) A 20 µL aliquot was taken after 15 min of white LED irradiation (1 × 10^5 lx). Prior to loading, 2 µL of 6X Orange-G loading dye in glycerol were added to the aliquot and mixed vigorously. The gel was electrophoresed at 80 V for 35 min with 1% agarose gels in 1X Tris–acetate-EDTA (TAE) buffer. Gels were then imaged in a Syngene G:BOX Gel Documentation System and band % quantification was performed using ImageJ Gel Analyzer.
# [4] = Flavin photostability in PBS under white LED irradiation; type: physicochemical; conditions: 30 min, 100 µM, pH 7.4
# Excerpt: After successful synthesis and initial characterisation, we monitored the photostability of the compounds in PBS (1x, pH 7.4) which was used for PDI assays as distilled or ultrapure water destabilises bacterial cells and coronaviruses through osmotic pressures[37],[38], thereby augmenting inactivation results. […] This yields lumichrome as the major degradation product which can only act as a PS under UV-irradiation[40]. […] However, it appears that guanidino substitution in our case improves the photostability.
# Figure S4: (A) Flavin photostability (100 µM) in PBS (0.1% DMSO) irradiated with 1x105 lx (35 mW/cm2) where A
# = Abs at 450 nm and A0 = Abs at 450 nm at 0 min.
# photostability. Experiments were performed using a quartz cuvette and measured using an Agilent Cary 300
# (1 picture or pasted object on this page, not shown here)
# [5] = tested on: WI-38 cells; assay: Light-induced toxicity towards WI-38 cells (MTS); type: cell-based, human; conditions: 10 μM flavin, 15 min irradiation 1 × 10^5 lx
# Description: An adapted method reported by Maisch et al. was used to conduct phototoxicity studies on human lung fibroblasts, WI-38[28]. Cells were seeded into 96-well plates containing 10,000 cells/well in 100 µL complete growth medium and cultured for 24 h at 37 °C and 5% CO2. […] The resulting mixtures were then incubated in the dark for 5 min and then either illuminated with 1 × 10^5 lx for 5, 10 or 15 min, or incubated further in the dark for 15 min (dark control). After irradiation, the flavin solutions were removed and 100 μL of DMEM with 10% FBS and without phenol red was added to each well and incubated over night at 37 °C and 5% CO2. Subsequently, 20 µL of MTS reagent was added into each well and incubated at 37 °C and 5% CO2 for 1–4 h and the absorbance of each well was measured at 490 nm using a plate reader. Control measurements included negative control untreated cells with light and in the dark containing 0.1% DMSO and cells treated with flavins for 15 min in the dark. All experiments were conducted in biological triplicates. The percentage cell viability was calculated according to Eq. (1).
# [6] = tested on: ssRNA (EGFP-encoding mRNA, ~ 1 k nt); assay: ssRNA photocleavage, agarose gel electrophoresis; type: biochemical; conditions: 10 µM flavin, 15 min white LED, PBS 0.1% DMSO
# Description: as §2
# [7] = tested on: murine hepatitis virus A59 strain (MHV-A59); assay: Photodynamic inactivation of MHV-A59 (TCID50 assay in 17Cl-1 cells); type: cell-based
# Description: The efficacy of the flavins were enumerated utilizing modified methods from ISO 18,184 and Leibowitz et al.[56] […] 100 µM working stock solutions were then created by diluting each DMSO solution into PBS. To control for the effect of DMSO on MHV-A59, DMSO was diluted into PBS at the same concentration. A white light apparatus was set up to cover a 4 × 5 (row x column) area of a 96-well plate with the same level of light intensity (1 × 10^5 lx). The stock solutions were then diluted in replicates of four to a total of 180 µl in PBS at 1, 5, and 10 µM concentrations for each sample. Virus stocks of MHV-A59 were thawed on ice prior to use. 20 µl of MHV-A59 stock (1.4 × 10^9 PFU/ml) was then mixed into each well, and the 4 × 5 well matrix was treated with the light or incubated in the dark at room temperature for a specified time (5, 10, or 15 min).
# After treatment, the samples were mixed into 320 µl of Gibco Difco™ Beef Extract (1.5% w/v beef extract in ddH2O; Life Technologies) and rolled for 15 min to chelate any free ions in the solution. The samples then were serially diluted (10^0–10^–7) in infectivity media (Dulbecco’s modified Eagle’s medium low glucose 1 g/L (DMEM, Life Technologies) supplemented with 2.5% fetal bovine serum (Merck), 3% tryptose phosphate broth (Merck), 1 × non-essential amino acids (Gibco), 1 × antibiotic–antimycotic (Thermo Fisher Scientific) and 1 × L-Glutamine (Gibco]) and added in triplicate to 17Cl-1 cell plates. For each sample or control there were 4 replicate treatments (in light or dark); each treatment replicate was plated in triplicate. Infected 17Cl-1 plates were incubated at 37 °C in a 5% CO2 atmosphere for 24 h. Plates were scored for cytopathic effect (CPE) by microscopy and viral titres were determined by the Reed and Muench 50% tissue culture infectious dose (TCID50) end point method. Outliers were removed from the four replicates using an outlier test. The full protocol was repeated in triplicate on different days to account for any variability in the assay.
# [8] = tested on: WI-38 cells; assay: 24 h MTS cytotoxicity assay, WI-38; type: cell-based; conditions: Homo sapiens, 24 h incubation, dark
# Description: as §1
# [9] = 5 µM flavin, 10 min irradiation
smiles,measurement,setting,value
"Cc1cc2nc3c(=O)[nH]c(=O)nc-3n(C[C@H](O)[C@H](O)[C@H](O)CO)c2cc1C [Riboflavin, reference compound]",IC50,[1],> 100 µM
same,E. coli log10 reduction of CFUs,"[2]; 1 µM flavin, 15 min irradiation (31.5 J/cm^2)",0.2 log10
same,E. coli log10 reduction of CFUs,"[2]; 1 µM flavin, 15 min irradiation (31.5 J/cm^2), listed as riboflavin",no inactivation
same,E. coli log10 reduction of CFUs,"[2]; 10 µM flavin, 15 min irradiation",0.2 log10
same,E. coli log10 reduction of CFUs,"[2]; 100 µM flavin, 5 min irradiation (10.5 J/cm^2)",0.0 log10
same,E. coli log10 reduction of CFUs,"[2]; 100 µM flavin, 10 min irradiation",0.0 log10
same,E. coli log10 reduction of CFUs,"[2]; 100 µM flavin, 15 min irradiation",0.0 log10
same,E. coli log10 reduction of CFUs,"[2]; 100 µM flavin, 15 min irradiation, listed as riboflavin",no activity
same,% NC (nicked coiled pDNA after photocleavage),[3],11%
same,photodecomposition / degradation,[4],80%
same,reduction in cell viability (light-induced toxicity),[5],no decrease in cell viability
same,% cleaved ssRNA,[6],28%
same,MHV-A59 log10 reduction in viral titre,"[7]; 1 µM flavin, 10 min irradiation (21.0 J/cm^2)",1.2 log10
same,MHV-A59 log10 reduction in viral titre,[7]; [9],3.2 log10
same,MHV-A59 viral load reduction,[7]; [9],> 99.9%
same,MHV-A59 log10 reduction in viral titre,"[7]; 10 µM flavin, 5 min irradiation (10.5 J/cm^2)",2.7 log10
same,MHV-A59 log10 reduction in viral titre,"[7]; 10 µM flavin, 10 min irradiation",3.4 log10
same,MHV-A59 log10 reduction in viral titre,"[7]; 10 µM flavin, 15 min irradiation (31.5 J/cm^2)",3.7 log10
same,IC50,[8],> 100 µM
